The values below come from US10828305B2 (SHANGHAI PHARMACEUTICALS HOLDING CO., LTD., priority 2016, dated 2020).

The target in one experiment is EGFR kinase (Homo sapiens, UniProt P00533). Nature of the experiment: Enzymatic experiment on EGFR (HTRF kinEASE-TK). In kind it is biochemical. As to conditions: ATP 1.65 μM; read-out: Kinase IC50 (nM) in vitro EGFR. How it is done: (§1) Enzymatic Experiment on EGFR/ErbB2
(§2) Firstly, preparing 1× reaction buffer required for the kinase, 5× Enzymatic buffer (HEPES 20 mM pH7.0, NaN3 0.1%, BSA 0.05%, sodium orthovanadate 0.5 mM) in the HTRF kinEASE-TK kit was diluted to 1 time with deionized water, 50 nM Supplement Enzymatic buffer (SEB reagent), 1 mM MnCl2, 5 mM MgCl2 and 1 mM DTT were added. Secondly, preparing 5× compound, 10 mM test compound stock solution was diluted in multiple steps with DMSO in a 96-well compound plate to prepare 100× compound as initial concentration, which was then used as the first concentration to perform a 3-fold gradient dilution with DMSO to obtain 10 concentrations. Afterwards, 1 μl gradient dilution was added to 19 μl 1× reaction buffer to prepare 5× compound for use. Then 2 μl 5× compound was transferred from the 96 well plate into a 384-well plate. To the compound-free control wells was added with 2 μl the following liquid: 19 μl 1× reaction buffer with addition of 1 μl DMSO. To the blank control wells was added 2 μl 250 mM EDTA. The third step was enzymatic reaction, the kinase, substrate (TK Substrate-biotin) and ATP were formulated into 2.5× enzyme/substrate mixture and 2.5×ATP solution using 1× reaction buffer respectively. The final concentration of ErbB2 kinase was 0.06 ng/μl, the final concentration of ATP was 4 μM; the final concentration of EGFR kinase was 0.06 units/μl, the final concentration of ATP was 1.65 μM; 4 μl 2.5× enzyme/substrate mixture was added to a 384-well plate, which was incubated at room temperature for 5 minutes; 4 μl 2.5×ATP solution was added to each well and the mixture was allowed to react for 30 minutes at room temperature. The fourth step was termination of the reaction, HTRF Detection buffer was used to prepare a mixture of 2×TK Antibody-Eu(K) and Sa-XL665, the amount of TK Antibody-Eu(K) was 5 μl per well. After the enzymatic reaction was performed for 30 minutes, 10 μl of the above liquid was added to the 384-well plate and the mixture was allowed to react at room temperature for 1 hour. The data was measured on EnVision™, the laser of 337 nm wavelength was selected as the excitation light, RFU665 nM and RFU620 nM were measured, and […]/RFU620 nM×10000 was used as the final data for analysis.
(In general: TR-FRET usually uses a lanthanide donor and a delayed reading to cut background.)

In the next experiment the test system is N87. Nature of the experiment: Proliferation inhibition assay in vitro, N87 (CellTiter-Glo). The class given is cell-based. As to conditions: Homo sapiens; 72 hours; read-out: IC50(nM) cell N87. How it is done:
(§3) Proliferation Inhibition Assay In Vitro of Cell Lines
(§4) 1. Cell culture and inoculation: on the first day of the experiment, normal cultured cells were taken in the exponential growth phase, the cells were dispersed by digesting, then the cell density was adjusted to 8.8×10^4 cells/mL for BT-474 and 6.6×10^4 cells/mL for N87, 90 μl of which were inoculated to each well in a 96-well cell culture plate; after inoculation, the microplate was placed at condition of 37° C., 5% CO2 overnight. 2. Dosing to cells: on the second day of the experiment, the microplate was taken out from incubator, […], of 10× compound was separately added to each well of the microplate, 2 duplicated wells were set for each concentration, 9 dosing concentrations were set for each compound. According to different cell lines, the initial concentration of each compound was different. Upon completion of addition, the microplate was placed at condition of 37° C., 5% CO2 for 72 hours. 3. Data acquisition: the microplate was taken out from the incubator and allowed to stand at room temperature to equilibrate for 30 minutes. 100 μl CellTiter-Glo® Luminescent Cell Viability Assay reaction solution which had been equilibrated at room temperature was added to each well and the microplate was shaken at 1300 rpm for 2 minutes at room temperature. The microplate was centrifuged at 2000 rpm for 1 minute in a HERAEUS Multifuge X1R and then allowed to equilibrate at room temperature for 10 minutes. The […] signal was measured on EnVision™.
For orientation: ATP-based viability assays read luminescence as a measure of living cells.

For the next experiment, the target named is ErbB2 kinase (Homo sapiens, UniProt P04626). Nature of the experiment: Enzymatic experiment on ErbB2 (HTRF kinEASE-TK). The class given is biochemical. As to conditions: ATP 4 μM; read-out: Kinase IC50 (nM) in vitro ErbB2. The protocol:
as §1, §2

For another experiment, the system named is BT-474. Nature of the experiment: Proliferation inhibition assay in vitro, BT-474 (CellTiter-Glo). The class given is cell-based. The note with it: Homo sapiens, 72 hours, read-out: IC50(nM) cell BT-474. How it is done:
as §3, §4

Molecules are shown by their SMILES.

EGFR kinase, sequence (P00533 25-1210): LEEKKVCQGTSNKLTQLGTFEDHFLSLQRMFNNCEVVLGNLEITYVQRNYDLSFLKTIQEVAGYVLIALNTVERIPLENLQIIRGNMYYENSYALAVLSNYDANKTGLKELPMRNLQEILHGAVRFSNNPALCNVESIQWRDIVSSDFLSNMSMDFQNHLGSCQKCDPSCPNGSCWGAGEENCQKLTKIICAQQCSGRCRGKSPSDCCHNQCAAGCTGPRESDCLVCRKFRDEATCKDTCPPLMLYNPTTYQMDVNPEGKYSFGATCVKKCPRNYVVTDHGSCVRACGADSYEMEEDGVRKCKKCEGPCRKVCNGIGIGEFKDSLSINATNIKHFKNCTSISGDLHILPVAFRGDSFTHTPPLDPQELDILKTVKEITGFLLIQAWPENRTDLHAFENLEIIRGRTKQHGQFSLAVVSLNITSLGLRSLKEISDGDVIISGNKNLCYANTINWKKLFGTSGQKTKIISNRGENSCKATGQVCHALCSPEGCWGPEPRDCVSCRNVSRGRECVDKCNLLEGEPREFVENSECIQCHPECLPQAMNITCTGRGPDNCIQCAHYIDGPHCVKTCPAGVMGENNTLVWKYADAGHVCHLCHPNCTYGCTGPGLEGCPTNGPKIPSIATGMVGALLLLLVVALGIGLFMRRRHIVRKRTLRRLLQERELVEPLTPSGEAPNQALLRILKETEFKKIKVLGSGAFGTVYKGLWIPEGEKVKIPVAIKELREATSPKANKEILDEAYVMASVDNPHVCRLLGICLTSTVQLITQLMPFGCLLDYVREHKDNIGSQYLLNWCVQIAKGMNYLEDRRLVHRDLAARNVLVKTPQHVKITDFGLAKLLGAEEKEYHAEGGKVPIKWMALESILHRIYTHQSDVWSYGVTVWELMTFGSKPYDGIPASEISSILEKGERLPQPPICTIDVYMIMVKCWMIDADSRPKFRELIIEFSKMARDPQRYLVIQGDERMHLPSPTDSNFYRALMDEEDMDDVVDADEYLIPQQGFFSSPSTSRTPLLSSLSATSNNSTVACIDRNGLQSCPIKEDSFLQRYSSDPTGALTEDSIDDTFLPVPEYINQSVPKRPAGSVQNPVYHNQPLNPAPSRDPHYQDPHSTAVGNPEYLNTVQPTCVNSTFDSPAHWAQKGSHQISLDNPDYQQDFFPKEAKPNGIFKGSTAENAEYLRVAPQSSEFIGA
ErbB2 kinase, sequence (P04626 23-1255): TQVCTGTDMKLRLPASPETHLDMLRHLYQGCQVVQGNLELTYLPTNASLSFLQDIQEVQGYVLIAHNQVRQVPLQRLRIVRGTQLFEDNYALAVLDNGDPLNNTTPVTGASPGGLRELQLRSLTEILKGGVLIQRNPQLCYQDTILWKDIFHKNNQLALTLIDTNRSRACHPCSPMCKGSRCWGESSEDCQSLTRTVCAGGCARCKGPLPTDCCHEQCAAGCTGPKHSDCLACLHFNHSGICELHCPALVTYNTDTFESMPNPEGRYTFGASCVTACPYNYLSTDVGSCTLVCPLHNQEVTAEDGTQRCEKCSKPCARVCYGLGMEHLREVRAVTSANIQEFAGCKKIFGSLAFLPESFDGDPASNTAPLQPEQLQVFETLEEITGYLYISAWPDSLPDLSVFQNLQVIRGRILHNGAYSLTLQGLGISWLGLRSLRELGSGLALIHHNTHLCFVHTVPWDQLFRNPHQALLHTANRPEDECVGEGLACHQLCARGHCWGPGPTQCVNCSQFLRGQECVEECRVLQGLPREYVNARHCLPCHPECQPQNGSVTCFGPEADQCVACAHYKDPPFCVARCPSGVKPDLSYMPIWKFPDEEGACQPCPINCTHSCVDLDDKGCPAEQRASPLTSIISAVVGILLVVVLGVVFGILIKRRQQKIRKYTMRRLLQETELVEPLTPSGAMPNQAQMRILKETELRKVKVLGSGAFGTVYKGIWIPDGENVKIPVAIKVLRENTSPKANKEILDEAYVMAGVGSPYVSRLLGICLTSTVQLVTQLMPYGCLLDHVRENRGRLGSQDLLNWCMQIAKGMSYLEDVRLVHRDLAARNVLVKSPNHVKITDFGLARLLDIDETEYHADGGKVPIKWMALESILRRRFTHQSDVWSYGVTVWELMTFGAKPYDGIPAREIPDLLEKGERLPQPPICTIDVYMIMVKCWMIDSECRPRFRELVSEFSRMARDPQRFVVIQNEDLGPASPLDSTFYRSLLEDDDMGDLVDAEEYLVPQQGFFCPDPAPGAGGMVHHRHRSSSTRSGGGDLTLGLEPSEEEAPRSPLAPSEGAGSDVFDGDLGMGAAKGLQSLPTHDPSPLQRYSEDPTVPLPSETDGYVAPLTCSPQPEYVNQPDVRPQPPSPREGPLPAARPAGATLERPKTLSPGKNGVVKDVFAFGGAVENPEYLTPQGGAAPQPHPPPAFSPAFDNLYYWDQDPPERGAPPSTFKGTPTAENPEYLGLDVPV

The term IC50 denotes the concentration that gives 50% inhibition. For `Cc1cc(Nc2ncnc3ccc(NC4=NC(C)(C)CO4)cc23)ccc1Oc1cc2nccn2cn1` [Embodiment 3, N^6-(4,4-dimethyl-4,5-dihydrooxazol-2-yl)-N^4-(4-(imidazo[1,2-c]pyrimidin-7-yloxy)-3-methylphenyl)quinazoline-4,6-diamine], the concentration for half-maximal inhibition (IC50) on EGFR kinase was 18.7 nM; with N87 it was 48.7 nM; at ErbB2 kinase, 1.1 nM; in the experiment on BT-474 it was 38.5 nM.

On to `Cc1cc(Nc2ncnc3ccc(Br)cc23)ccc1Oc1cc2nncn2cn1` [Embodiment 5, N-(4-([1,2,4]triazolo[4,3-c]pyrimidin-7-yloxy)-3-methylphenyl)-6-bromoquinazolin-4-amine], for which the 50% inhibitory concentration (IC50) at EGFR kinase was 703 nM; with N87 it was 313 nM; on ErbB2 kinase, 12.9 nM; with BT-474, 460 nM.

Regarding `Cc1cc(Nc2ncnc3ccc(NC4=N[C@H](C)CO4)cc23)ccc1Oc1cc2nncn2cn1` [Embodiment 7, (R)—N^4-(4-([1,2,4]triazolo[4,3-c]pyrimidin-7-yloxy)-3-methylphenyl)-N^6-(4-methyl-4,5-dihydrooxazol-2-yl)quinazoline-4,6-diamine], the IC50 on EGFR kinase stood at 164 nM; with N87, 71 nM; at ErbB2 kinase it was 8.1 nM; in the experiment with BT-474, 45 nM.

In the case of `Cc1cc(Nc2ncnc3ccc(NC4=N[C@@H](C)CO4)cc23)ccc1Oc1cc2nncn2cn1` [Embodiment 8], the IC50 on EGFR kinase came to 115 nM; in the experiment on N87, 68.7 nM; at ErbB2 kinase, 7.8 nM; with BT-474, 43.4 nM.

In the case of `Cc1cc(Nc2ncnc3ccc(NC4=NC(C)(C)CS4)cc23)ccc1Oc1cc2nncn2cn1` [Embodiment 9, N^4-(4-([1,2,4]triazolo[4,3-c]pyrimidin-7-yloxy)-3-methylphenyl)-N^6-(4,4-dimethyl-4,5-dihydrothiazol-2-yl)quinazoline-4,6-diamine], the 50% inhibitory concentration (IC50) amounted to 35.9 nM at EGFR kinase, 39.5 nM in the experiment with N87, 7.4 nM on ErbB2 kinase and 33.4 nM in the experiment on BT-474.

`Cc1cc(Nc2ncnc3ccc(NC(=O)N4CCN(C)CC4)cc23)ccc1Oc1cc2nncn2cn1` [Embodiment 10, N-(4-((4-([1,2,4]triazolo[4,3-c]pyrimidin-7-yloxy)-3-methylphenyl)amino)quinazolin-6-yl)-4-methylpiperazine-1-carboxamide]: the IC50 at EGFR kinase is 143 nM; in the experiment with N87 it was 200 nM; on ErbB2 kinase it was 12.6 nM; with BT-474, 92.3 nM.

As to `Cc1cc(Nc2ncnc3ccc(NC(=S)NC(C)(CO)CO)cc23)ccc1Oc1cc2nncn2cn1` [Embodiment 12, 1-(4-((4-([1,2,4]triazolo[4,3-c]pyrimidin-7-yloxy)-3-methylphenyl)amino)quinazoline-6-yl)-3-(1,3-dihydroxy-2-methylpropan-2-yl)thiourea], the IC50 at EGFR kinase was 231 nM; in the experiment with N87 it was 482 nM; on ErbB2 kinase, 4.3 nM; in the experiment on BT-474, 136 nM.

In the case of `Cc1cc(Nc2ncnc3ccc(NC4=NC(C)(CO)CO4)cc23)ccc1Oc1cc2nncn2cn1` (stereo not shown) [Embodiment 13, (2-((4-((4-([1,2,4]triazolo[4,3-c]pyrimidin-7-yloxy)-3-methylphenyl)amino)quinazolin-6-yl)amino)-4-methyl-4,5-dihydrooxazol-4-yl)methanol], the IC50 on EGFR kinase stood at 15.2 nM; in the experiment with N87, 204 nM; on ErbB2 kinase, 2.6 nM; with BT-474, 47.9 nM.

As to `COCC(=O)NC/C=C/c1ccc2ncnc(Nc3ccc(Oc4cc5nncn5cn4)c(C)c3)c2c1` [Embodiment 14, 2-methoxy-N-((E)-3-(4-(3-methyl-4-([1,2,4]triazolo[4,3-c]pyrimidin-7-yloxy)anilino)-6-quinazolinyl)allyl)acetamide], the half-inhibitory concentration (IC50) at EGFR kinase amounted to 115 nM; with N87, 94.1 nM; on ErbB2 kinase it was 1.7 nM; in the experiment with BT-474, 35.2 nM.

With `Cc1cc(Nc2ncnc3ccc(-c4ccc(CNCCS(C)(=O)=O)o4)cc23)ccc1Oc1cc2nncn2cn1` [Embodiment 15, N-(4-([1,2,4]triazolo[4,3-c]pyrimidin-7-yloxy)-3-methylphenyl)-6-(5-(((2-(methylsulfonyl)ethyl)amino)methyl)furan-2-yl)quinazolin-4-amine], the 50% inhibitory concentration (IC50) on EGFR kinase is 14.9 nM; in the experiment on N87 it was 33.2 nM; at ErbB2 kinase, 1.2 nM; in the experiment on BT-474, 17.4 nM.

Turning to `C=C(F)C(=O)Nc1ccc2ncnc(Nc3ccc(Oc4cc5nncn5cn4)c(C)c3)c2c1` [Embodiment 16, N-(4-((4-([1,2,4]triazolo[4,3-c]pyrimidin-7-yloxy)-3-methylphenyl)amino)quinazolin-6-yl)-2-fluoroacrylamide], the concentration for half-maximal inhibition (IC50) at EGFR kinase worked out at 32.3 nM; in the experiment on N87 it was 5.6 nM; at ErbB2 kinase it was 3.4 nM; with BT-474 it was 7.7 nM.

With `Cc1cc(Nc2ncnc3ccc(NC(=O)CC(C)(C)O)cc23)ccc1Oc1cc2nncn2cn1` [Embodiment 17, N-(4-((4-([1,2,4]triazolo[4,3,c]pyrimidin-7-yloxy)-3-methylphenyl)amino)quinoline-6-yl)-3-hydroxy-3-methylbutanamide], the IC50 on EGFR kinase is 80.9 nM; in the experiment on N87, 712 nM; on ErbB2 kinase it was 7.9 nM; in the experiment with BT-474 it was 304 nM.

For the compound `CC1(C)COC(Nc2ccc3ncnc(Nc4ccc(Oc5cc6nncn6cn5)c(F)c4)c3c2)=N1` [Embodiment 19, N^4-(4-([1,2,4]triazolo[4,3-c]pyrimidin-7-yloxy)-3-fluorophenyl)-N^6-(4,4-dimethyl-4,5-dihydrooxazol-2-yl)-quinazoline-4,6-diamine], the IC50 on EGFR kinase was determined as 22.1 nM; with N87, 125 nM; at ErbB2 kinase, 3.3 nM; with BT-474, 98.2 nM.

Regarding `Cc1cc(Nc2ncnc3ccc(-c4ccco4)cc23)ccc1Oc1cc2nncn2cn1` [Embodiment 21, N-(4-([1,2,4]triazolo[4,3-c]pyrimidin-7-yloxy)-3-methylphenyl)-6-(furan-2-yl)-quinazolin-4-amine], the IC50 at EGFR kinase was found to be 43.5 nM; with N87, 73.8 nM; on ErbB2 kinase it was 2.2 nM; in the experiment on BT-474, 140 nM.

Consider `Cc1cc(Nc2ncnc3ccc(-c4ccc(CN5CCN(S(C)(=O)=O)CC5)o4)cc23)ccc1Oc1cc2nncn2cn1` [Embodiment 22, N-(4-([1,2,4]triazolo[4,3-c]pyrimidin-7-yloxy)-3-methylphenyl)-6-(5-((4-(methanesulfonyl)piperazin-1-yl)methyl)furan-2-yl)quinazolin-4-amine], for which the IC50 on EGFR kinase is 18 nM; in the experiment on N87, 35.6 nM; at ErbB2 kinase, 4.1 nM; with BT-474, 40.7 nM.

Regarding `COc1cc2ncnc(Nc3ccc(Oc4cc5nncn5cn4)c(C)c3)c2cc1OC1CCN(C(=O)/C=C/CN(C)C)CC1` [Embodiment 23], the IC50 on EGFR kinase turned out to be 0.7 nM; in the experiment with N87, 55.7 nM; at ErbB2 kinase it was 5.2 nM; with BT-474 it was 79.5 nM.

In the case of `Cc1cc(Nc2ncnc3ccc(NC4=NC(C)(C)CO4)cc23)ccc1Oc1ccn2ncnc2c1` [drawing 219, reference compound], the IC50 came out at 57.6 nM on EGFR kinase, 13.2 nM in the experiment with N87 and 14.2 nM in the experiment with BT-474.
